Data published in patent US9050353B2, “Use of icariin and epimedium flavonoids containing icariin to treat diseases associated with myelin sheath lesion” (Xuanwu Hospital of Capital Medical University, priority 2010, dated 2015).

How the values were obtained:
CNPase = test: Spinal cord CNPase by Western blot, EAE mice; assay type: in vivo; conditions: positive control drug, dose not given
Procedure: (§1) Preparation of mice model and administration: experimental autoimmune encephalomyelitis (EAE) mice model is an important tool for studying various human demyelinating diseases of nervous system. In the present experiment, the preparation of EAE mice model was performed by immunizing female C57BL/6J mice with myelin sheath oligodendroglial cell surface glycoprotein MOG35-55. That is, the mice were subcutaneously injected at dorsal part of spinal column with 0.2 mL of MOG35-55 antigen elixir, and 0.2 ml of bordetella pertussis solution was intraperitoneally injected at the time of immunization injection and 48 h thereafter, respectively. Icariin was intragastrically administered after the last injection of bordetella pertussis solution, for consecutive 3 weeks.
Experimental objective: myelin sheath is formed with prominences of oligodendroglial cells. CNPase, myelin basic protein (MBP) are marker proteins of mature oligodendroglial cells. The present experiment was to observe the expression of CNPase and MBP to represent the content of oligodendroglial cells in spinal cord of EAE model mice by Western blot method; and to study the effects of icariin on it.
Experimental method: the mice were anesthetized and sacrificed, fresh spinal cord was taken on ice, total protein was extracted by cleavage on ice, to prepare Western blot sample, added separately with CNPase, MBP primary antibodies and incubated, added with corresponding secondary antibodies, ECL colorated, Kodak film exposed. Pictures were analyzed with Image J software and standardized with β-actin.

[1] = test system: Brain-derived neurotrophic factor (BDNF); test: BDNF of spinal cord lumbar intumescentia by immunohistochemical method, EAE rats; assay type: in vivo; conditions: positive control drug, dose not given
Procedure: (§2) Preparation of rat model and administration: experimental autoimmune encephalomyelitis (EAE) model is an important tool for studying various human demyelinating diseases of nervous system. In the example, the preparation of EAE rat model was performed by multipoint immunizing female Lewis rats subcutaneously at tail root with a homogenate of spinal cord and cerebral gray matter of Guinea pig as well as complete Freund's adjuvant after emulsification. They were intragastrically administered with Epimedium flavanoids for 3 weeks.
Experimental objective: neurotrophic factors are important substances for constituting nerve regeneration microenvironment. Brain-derived neurotrophic factor (BDNF) is an important neurotrophic factor, can promote the regeneration and plerosis of myelin sheath. In this experiment, BDNF content of spinal cord lumbar intumescentia in EAE rat model was measured by immunohistochemical method, and the effects of Epimedium flavanoids on the content was observed.
Experimental method: the rats were anesthetized with 10% chloral hydrate, fixed by perfusion of 4% paraformaldehyde, spinal cord tissues were taken for frozen section. Incubated with BDNF primary antibody, added with corresponding secondary antibody and third antibody, DAB colorated, observed under microscope, and pictures were analyzed using Image Pro plus5.0 software.

[2] = test system: myelinoclasis of spinal cord lumbar intumescentia in EAE rat model; test: Myelinoclasis of spinal cord lumbar intumescentia, LFB staining, EAE rats; assay type: in vivo; conditions: positive control drug, dose not given, scale 0-4
Procedure: as §2, with “weeks. […]” for “weeks.”
(§3) Experimental method: the rats were anesthetized with 10% chloral hydrate on the 14th day of experiment, fixed by perfusion of 4% paraformaldehyde, spinal cord tissues were taken for making paraffin sections, section thickness 4 μm. (1) Stained with LFB, observed under microscope, and scored according to the following standard: 0 score, absence of myelinoclasis; 1 score, one small range of myelinoclasis; 2 score, 2 or 3 small ranges of myelinoclasis; 3 score, 1 to 2 large ranges of myelinoclasis; 4 score, large ranges of myelinoclasis accumulatively existing in 20% or more of white matter regions. […]

[3] = test system: experimental autoimmune encephalomyelitis (EAE) rat model; test: Nervous function damage score in EAE rat model; assay type: in vivo, Lewis rats; conditions: EAE rats, peak of attack; positive control drug, dose not given; scale 0-6
Procedure: as §2
Nervous function test method: the ethological changes of rats were observed by two experimenters using blind method every day. Nervous function damage scoring standard: 0 score, absence of symptom; 1 score, decrease of tail tension, visible evident slight gait awkward; 2 score, double hind limbs weak, walk difficult; 3 score, double hind limbs paralysis; 4 score, double hind limbs paralysis and fore limbs weak; 5 score, four limbs paralysis; 6 score, near death or died.

IL-1 = test: Serum IL-1 content by ELISA, EAE mice; assay type: in vivo; conditions: positive control drug, dose not given
Procedure: as §1
(§4) Experimental objective: interleukin-1 (IL-1) and IL-6 are important inflammatory cytokines, and have promoting effects on inflammatory reactions. This experiment used enzyme linked immunosorbent assay (ELISA) to measure contents of IL-1 and IL-6 in serums of EAE mice model, and the effects of icariin on these contents were observed.
(§5) Experimental method: mice were anesthetized with pentobarbital sodium, blood sample was taken from abdominal aorta, stood at room temperature for 2 h, centrifuged at 3000 rpm for 20 min, and supernatant was taken, stored at −80° C. for use. The operation was performed strictly according to the steps of specification of ELISA kit. Optical density was measured with ELIASA at 450 nm. The corresponding contents of IL-1 and IL-6 were calculated with the measured OD values on standard curves.

IL-6 = test: Serum IL-6 content by ELISA, EAE mice; assay type: in vivo; conditions: positive control drug, dose not given
Procedure: as §1, §4, §5

nitric oxide (NO) = test: NO content of cerebral cortex, biochemical kit, EAE rats; assay type: in vivo; conditions: positive control drug, dose not given
Procedure: as §2
Experimental objective: nitric-oxide synthase (NOS) catalyzes the generation of nitric oxide (NO). During inflammatory reaction, the activity of induced NOS increases, excess NO are generated and oxygen radicals are generated via oxidation, which may result in damages in nerve cells and myelin sheath. In this experiment, NOS activity and NO content were measured using biochemical kits in cerebral cortex of EAE rat model, and the effects of Epimedium flavanoids on changes thereof were observed. […]

[4] = test system: inflammatory cell infiltration of spinal cord lumbar intumescentia in EAE rat model; test: Inflammatory cell infiltration of spinal cord lumbar intumescentia, HE staining, EAE rats; assay type: in vivo; conditions: positive control drug, dose not given, scale 0-4
Procedure: as §2, with “weeks. […]” for “weeks.”
as §3

## CC(=O)OCC(=O)[C@@]1(O)CC[C@H]2[C@@H]3CCC4=CC(=O)C=C[C@]4(C)[C@H]3C(=O)C[C@@]21C [prednisone acetate]
CNPase
  CNPase/actin Integration grey level: 1.20 ± 0.01
[1]
  integrated optical density of BDNF positive cell: 3.64 ± 0.23 ×10^5
  total area of BDNF positive cell: 9.43 ± 1.12 ×10^5
[2]
  Myelinoclasis (LFB staining score): 0.89 ± 0.20
[3]
  Nervous function damage score: 0.83 ± 0.48
IL-1
  IL-1 content: 0.115 ± 0.001 pg/mL
IL-6
  IL-6 content: 0.121 ± 0.010 pg/mL
Nitric oxide (NO)
  NO content: 0.77 ± 0.01 mmol/mg protein
[4]
  Inflammatory cell infiltration (HE staining score): 1.00 ± 0.29
